Reference: US12195413B2, “Ethynyl derivatives” (Hoffmann-La Roche Inc., priority 2015, dated 2025)

Experiment: rat Vogel conflict drinking test
Format: in vivo

With `CN1C(=O)N(c2ccc(C#Cc3ccccc3)cn2)[C@@H]2CC[C@@H]21` [Example 1, (−)-(1S,5R)-2-methyl-4-(5-(phenylethynyl)pyridin-2-yl)-2,4-diazabicyclo[3.2.0]heptan-3-one] the “anxiolytic activity, minimal effective dose” value was 0.1 mg/kg.
